Patent publication US20220079993A1, “NON-NATURALLY OCCURRING THERMOGENIC ADIPOCYTES, METHODS OF MAKING, AND METHODS OF USE THEREOF” (University of Georgia Research Foundation, Inc., priority 2019, published 2022)
Where a name gives a salt, the structure may show the parent alone. Read-outs that look alike come from different tables or passages of the source.

Assays:
Type in all cases: cell-based, human
beige adipocytes [1] = assay: Lipolysis validation assays of primary hits at three concentrations; parameters: % of Control (1) / % of Control (2) / % of Control (3) / % of Control (4): unit of the concentration uncertain; details: for activity at 2.2 µM: Conc. 2.2 µM; for activity at 6.7 µM: Conc. 6.7 µM; for activity at 20 µM: Conc. 20 µM; for activity at 2200 µM: Conc. 2.2 mM
Procedure: (§1) ADSCs were seeded at 5000 cell/cm^2 in 12-well plates, grown for 5 days and then induced to differentiate into GC for 20 days. Prior to the assay, cells were washed in DPBS twice and then incubated with DMEM with 2% fatty-acid free BSA (Santa Crus, sc-500949) and Triascin C (5 μM). Cells were treated with forskolin (20 μM) for indicated time periods and supernatant samples were collected. Lipolysis assay was performed with free glycerol reagent (Sigma, F6428-40ML), according to manufacturer instructions.
(§2) Lipolysis assays were performed after 24 hours of drug treatment by measuring free glycerol released in the 384-well format, using the procedure described above. Absorbance for each compound was normalized to untreated control samples for each plate and calculated as a percent of the control. Cut-offs for “activating” and “inhibiting” compounds were set at 2-fold. Validation assays were performed for select compounds at a range of concentration doses.
Next, lipolysis assays were performed for all 111 compounds identified in the primary screen at three different concentrations, of which twenty-four were selected for further analysis based on their newness and/or reproducibility.

UCP1 = assay: Secondary screen, UCP1 transcript levels by qRT-PCR; details: secondary screen of primary hits
Description: FIG. 8A is a scheme used for high-throughput screening (HTS). FIG. 8B is a scatter-plot of glycerol release for each compound assayed (n=3889) in an HTS screen. Data are shown as the percentage of glycerol released compared to untreated beige adipocytes (% of control). FIG. 8C is a computational analysis of preliminary hits identified in the HTS using BiNChE. FIG. 8D is a plot showing the results of a secondary hit validation of primary compounds performed by evaluating levels of UCP1 transcript by qRT-PCR. Unstimulated beige cells, selected adrenergic agonists, and potential new non-adrenergic beige fat activators identified in the primary screen are shown. Transcript levels were normalized to UCP1 levels in ADSCs, n=3 for each technical 20 replicate. *P<0.0.05, **P<0.01, ***P<0.005. FIGS. 8E and 8F are bar graphs showing secondary screening of known thermogenic activators. Transcript levels of UCP1 were assayed in unstimulated ADSCs and ADSC-derived beige adipocytes and following treatment with forskolin (FSK, 20 μM), isoproterenol (1, 10 μM) (8E) and Mirabegron (1, 10 and 25 μM) (8F). Transcript levels were determined by qRT-PCR. n=3 for each independent replicate. Data are mean+/−standard deviation. *P<0.0.05, **P<0.01.
Cells were washed with DPBS, lysed directly on the plate and used for RNA isolation with the E.Z.N.A Total RNA Kit (Omega, R6834-02) according to manufacturer instructions. RNA quantitation was performed with the Biotek Synergy 2 plate reader and cDNA was synthesized using 1 ug of RNA with the iScript cDNA Synthesis Kit (Bio-Rad, 1708841). The qRT-PCR was performed on a ViiA7 Real-Time PCR System (ThermoFisher) using a TaqMan Universal PCR Master Mix (ThermoFisher, 4324020) according to manufacturer instructions with the following TaqMan primer/probe sets (UCP1, Hs01084772_m1), DIO2, Hs00988260_ml, 18S rRNA, Hs03928985_g1). Each assay was performed in triplicate and normalized to 18S rRNA and graphed as mean+/−standard deviation.
To determine if hits identified in the first-round screen activated the thermogenic program, UCP1 transcript levels were used as a readout. This secondary screen incorporated adrenergic agonists, such as Mirabegron, isoproterenol and phenylephrine, and eighteen additional compounds with no reported function in thermogenic regulation (FIG. 8D, 8E, 8F). 18/25 (72%) of the lipolysis-activating compounds identified in the primary screen also activate the thermogenic program through UCP1. Twelve of these compounds have no reported adrenergic agonist activity and could potentially operate through different signaling mechanisms (FIG. 8D and Table 9).

beige adipocytes [2] = assay: High-throughput primary screen, lipolysis assay (glycerol release), 384-well; details: 20 μM
Procedure: as §1, with “Prior to the assay, cells were washed in DPBS twice and then incubated with DMEM with 2% fatty-acid free BSA (Santa Crus, sc-500949) and Triascin C (5 μM).” left out
ADSCs were plated in 384-well plates at a density of 5000 cell/cm2 and grown to confluency over ˜4 days. Cells were then differentiated to beige adipocytes using B-8 medium for 21 days. All cell culture and incubations in the 384-well format were done at 37° C. and 5% CO2. […] The use of FDA-approved drugs may allow for re-purposing for therapeutic use.
as §2

[3] = Homo sapiens, Adipocyte, 24 h, read-out: % of Control (2)
[4] = Homo sapiens, Adipocyte, 24 h, read-out: % of Control (4)
[5] = Homo sapiens, Adipocyte, 24 h, read-out: % of Control (1)
[6] = Homo sapiens, Adipocyte, 24 h, read-out: % of Control (3)

Row | Compound | activity at 2.2 µM (beige adipocytes [1]; [3]) | activity at 2.2 µM (beige adipocytes [1]; [4]) | activity at 6.7 µM (beige adipocytes [1]; [5]) | activity at 6.7 µM (beige adipocytes [1]; [3]) | activity at 6.7 µM (beige adipocytes [1]; [6]) | activity at 6.7 µM (beige adipocytes [1]; [4]) | activity at 20 µM (beige adipocytes [1]; [5]) | activity at 20 µM (beige adipocytes [1]; [3]) | activity at 20 µM (beige adipocytes [1]; [6]) | activity at 20 µM (beige adipocytes [1]; [4]) | activity at 2200 µM (beige adipocytes [1]; [5]) | activity at 2200 µM (beige adipocytes [1]; [6]) | Activation of the thermogenic program (UCP1 transcript), in words (UCP1) | % of Control (1) (beige adipocytes [1]; Conc. 2.2 (unit uncertain)) | % of Control (2) (beige adipocytes [1]; Conc. 2.2 (unit uncertain)) | % of Control (3) (beige adipocytes [1]; Conc. 2.2 (unit uncertain)) | % of Control (4) (beige adipocytes [1]; Conc. 2.2 (unit uncertain)) | % of Control (1) (beige adipocytes [1]; Conc. 6.7 (unit uncertain)) | % of Control (2) (beige adipocytes [1]; Conc. 6.7 (unit uncertain)) | % of Control (3) (beige adipocytes [1]; Conc. 6.7 (unit uncertain)) | further results
1 | O=C1CN2Cc3c(ccc(Cl)c3Cl)N=C2N1 [Anagrelide HCl] | 146% | 144% | 195% | 268% | 191% | 156% | 196% | 183% | 212% | 161% | 125% | 124% | efficacy in beige cell activation |  |  |  |  |  |  |  | 
2 | Cc1ccccc1N1CCN(S(=O)(=O)C[C@]23CC[C@H](C[C@@H]2NC(=O)[C@@H](N)CCS(C)(=O)=O)C3(C)C)CC1 [L-368, 899] |  |  |  |  |  |  |  |  |  |  |  |  | activators in both rounds of screening | 196.9 % of Control | 128 % of Control | 118.57 % of Control | 91.72 % of Control | 185.48 % of Control | 151.88 % of Control | 130.11 % of Control | % of Control (4) (beige adipocytes [1]; Conc. 6.7 (unit uncertain)): 148.51 % of Control; % of Control (1) (beige adipocytes [1]; Conc. 20 (unit uncertain)): 143.81 % of Control; % of Control (2) (beige adipocytes [1]; Conc. 20 (unit uncertain)): 179.29 % of Control; % of Control (3) (beige adipocytes [1]; Conc. 20 (unit uncertain)): 192.97 % of Control; % of Control (4) (beige adipocytes [1]; Conc. 20 (unit uncertain)): 166.21 % of Control
3 | CC1(C)C(=O)N(CCN2CCC(C(=O)c3ccc(F)cc3)CC2)c2ccccc21 [LY-310, 762] |  |  |  |  |  |  |  |  |  |  |  |  | activators in both rounds of screening | 179.4 % of Control | 180.24 % of Control | 180.44 % of Control | 143.79 % of Control | 179.76 % of Control | 199.88 % of Control | 222.09 % of Control | % of Control (4) (beige adipocytes [1]; Conc. 6.7 (unit uncertain)): 289.77 % of Control; % of Control (1) (beige adipocytes [1]; Conc. 20 (unit uncertain)): 264.29 % of Control; % of Control (2) (beige adipocytes [1]; Conc. 20 (unit uncertain)): 223.06 % of Control; % of Control (3) (beige adipocytes [1]; Conc. 20 (unit uncertain)): 225.27 % of Control; % of Control (4) (beige adipocytes [1]; Conc. 20 (unit uncertain)): 201.38 % of Control
4 | Nc1nc(CC(=O)Nc2ccc(CCNC[C@H](O)c3ccccc3)cc2)cs1 [Mirabegron] | 198% | 131% |  | 162% | 168% | 192% | 200% | 211% | 65% | 201% | 142% | 172% |  |  |  |  |  |  |  |  | activity at 6700 µM (beige adipocytes [1]; Homo sapiens, Adipocyte, 24 h, Conc. 6.7 mM, read-out: % of Control (1)): 203%; % Control (relative levels of glycerol release) (beige adipocytes [2]; 24 hours of drug treatment, vs untreated beige adipocytes): 211.65 % control; Outcome in the primary screen (glycerol release), in words (beige adipocytes [2]; 24 hours, cut-offs at 2-fold): efficacy in the HTS
5 | COc1ccc(-c2cc3c(C)nc(N)nc3n([C@H]3CC[C@H](OCCO)CC3)c2=O)cn1 [PF-04691502] |  |  |  |  |  |  |  |  |  |  |  |  | activators in both rounds of screening | 171.55 % of Control | 138.35 % of Control | 232.86 % of Control | 105.98 % of Control | 257.98 % of Control | 216.59 % of Control | 225.05 % of Control | % of Control (4) (beige adipocytes [1]; Conc. 6.7 (unit uncertain)): 155.98 % of Control; % of Control (1) (beige adipocytes [1]; Conc. 20 (unit uncertain)): 304.52 % of Control; % of Control (2) (beige adipocytes [1]; Conc. 20 (unit uncertain)): 224.71 % of Control; % of Control (3) (beige adipocytes [1]; Conc. 20 (unit uncertain)): 171.76 % of Control; % of Control (4) (beige adipocytes [1]; Conc. 20 (unit uncertain)): 302.07 % of Control
6 | Cc1ccc([N+](=O)[O-])cc1S(=O)(=O)N(C)/N=C/c1cnc2ccc(Br)cn12 [PIK-75] |  |  |  |  |  |  |  |  |  |  |  |  | activators in both rounds of screening | 197.74 % of Control | 134.71 % of Control | 183.08 % of Control | 136.9 % of Control | 280.95 % of Control | 197.53 % of Control | 165.05 % of Control | % of Control (4) (beige adipocytes [1]; Conc. 6.7 (unit uncertain)): 207.93 % of Control; % of Control (1) (beige adipocytes [1]; Conc. 20 (unit uncertain)): 158.45 % of Control; % of Control (2) (beige adipocytes [1]; Conc. 20 (unit uncertain)): 244.82 % of Control; % of Control (3) (beige adipocytes [1]; Conc. 20 (unit uncertain)): 198.79 % of Control; % of Control (4) (beige adipocytes [1]; Conc. 20 (unit uncertain)): 233.79 % of Control
7 | CC[C@@H]1C(=O)OC[C@@H]1Cc1cncn1C [Pilocarpine nitrate] | 135% | 89.8% | 220% | 260% | 167% | 84.2% | 200% | 290% | 230% | 181% | 109% | 176% | activators in both rounds of screening |  |  |  |  |  |  |  | 
8 | Cc1cc(C)c(/C=C2\C(=O)Nc3ccccc32)[nH]1 [SU 5416] | 379% | 232% | 349% | 366% | 251% | 238% | 283% | 267% | 233% | 246% | 281% | 214% | activators in both rounds of screening |  |  |  |  |  |  |  | 
9 | COc1cc2c(cc1OC)-c1c/c(=N\c3c(C)cc(C)cc3C)n(C)c(=O)n1CC2 [Trequinsin HCl] | 251% | 244% | 271% | 264% | 232% | 215% | 284% | 292% | 256% | 248% | 240% | 188% | efficacy in beige cell activation |  |  |  |  |  |  |  | 
